The data set in a line: RP-TLC on cellulose layers, lipophilicity evaluation with water-organic modifier binary solvent systems. Type of data set: physicochemical. The note with it: for relative lipophilicity among the investigated substances: RP-TLC on cellulose, all mobile phases; for hRF / - m (slope, specific hydrophobic surface area) / C0 (hydrophobicity parameter, C0 = - RM0/m) / RM0 (intercept, hydrophobicity parameter): cellulose; for - m (slope, specific hydrophobic surface area) / C0 (hydrophobicity parameter, C0 = - RM0/m) / RM0 (intercept, hydrophobicity parameter): organic modifier 10-30%. On the procedure:
The three, water-organic modifier, binary solvent systems were used with different volume fractions. All components of mobile phases were of analytical grade of purity.
The TLC experiments were performed on 10 cm × 10 cm cellulose (Art. 105552, Merck, Germany) layers.
After the development, the detection was performed by exposing the plates to iodine vapour. All investigations were performed at room temperature (22 ± 2 °C).
The RF -values were calculated according to the relationship:
RF = Distance of spot from origin / Distance of mobile phase front from origin
Here, RM-values were calculated for each solute in each mobile phase according to the Bate-Smith and Westall equation ([29]):
RM=log (1/RF-1) (Equation 1)
In an aim to establish the reversed-phase TLC on cellulose, the mobile phase had to be more polar than the cellulose.
The retention behavior of biological active substances investigated in RP-TLC can be presented as the relationship between the RM-values and the content of organic modifier in mobile phase through the linear Equation ([16]):
RM = R^0M + mC (Equation 2)
The value of the intercept, R^0M, represents the lipophilicity of the examined substance and the value of the slope, m, corresponds to the specific hydrophobic surface area of this substance, while C represents the volume fraction of the organic modifier in mobile phase.
By the analogy through the hydrophobicity parameter of φ0 ([6], [7]), previously defined for the HPLC method as the concentration of the organic modifier in the mobile phase for which the distribution of the analyzed substance between the mobile and stationary phase was equal (1:1) another hydrophobicity parameter, C0, can be calculated. The hydrophobicity parameter, C0, represents the volume fraction of the organic modifier in mobile phase where RM = 0 ([11]-[12]) and it can be calculated as C0 = - R^0M / m.

Setting [1] is: water-acetone, 10 vol% organic modifier.
Where [2] appears, read: water-acetone, 15 vol% organic modifier.
Where [3] appears, read: water-acetone, 20 vol% organic modifier.
[4] abbreviates: water-acetone, 25 vol% organic modifier.
[5] abbreviates: water-acetone, 30 vol% organic modifier.
[6] abbreviates: water-ethanol, 10 vol% organic modifier.
Setting [7] is: water-ethanol, 15 vol% organic modifier.
Setting [8] is: water-ethanol, 20 vol% organic modifier.
Setting [9] is: water-ethanol, 25 vol% organic modifier.
Where [10] appears, read: water-ethanol, 30 vol% organic modifier.
[11] abbreviates: water-methanol, 10 vol% organic modifier.
Setting [12] is: water-methanol, 15 vol% organic modifier.
Where [13] appears, read: water-methanol, 20 vol% organic modifier.
[14] abbreviates: water-methanol, 25 vol% organic modifier.
[15] abbreviates: water-methanol, 30 vol% organic modifier.

These results are taken from PMC3813140, “Lipophilicity Examination of Some ACE inhibitors andHydrochlorothiazide on Cellulose in RP Thin-Layer Chromatography” (Iranian Journal of Pharmaceutical Research : IJPR, 2012).

Take `NCCCC[C@H](NC(CCc1ccccc1)C(=O)O)C(=O)N1CCC[C@H]1C(=O)O.O.O` (stereo partly drawn) [Substance 3, (S)-1-[N^2-(1-carboxy-3-phenylpropyl)-L-lysyl]-L-proline dihydrate]: the “relative lipophilicity among the investigated substances” value is “most hydrophilic”. This molecule yielded a hRF under setting [1] of 86. Also, the hRF under setting [2] was found to be 90. Besides, the hRF under setting [3] came to 92. Under setting [4], this molecule came in with a hRF of 94. In addition, the hRF under setting [5] was 96. For the same molecule, where the note is “water-acetone”, the “- m (slope, specific hydrophobic surface area)” value was 2.849 ± 0.001. This molecule displayed a hRF under setting [6] of 91. The hRF under setting [7] is 93. This molecule gave a hRF under setting [8] of 95. Under setting [9], the hRF was found to be 96. In addition, the hRF under setting [10] stood at 97. Besides, the “- m (slope, specific hydrophobic surface area)” value (water-ethanol) is 2.533 ± 0.001. Under setting [11], this molecule had a hRF of 85. Under setting [12], this molecule had a hRF of 88. Besides, under setting [13], the hRF is listed as 91. In addition, the hRF under setting [14] is 92. Further, the hRF under setting [15] was found to be 93. The “- m (slope, specific hydrophobic surface area)” value (water-methanol) came to 1.871 ± 0.002.
As for `NS(=O)(=O)c1cc2c(cc1Cl)NCNS2(=O)=O` [HCTZ, 6-chloro-3,4-dihydro-2H-1,2,4-benzothiadiazine-7-sulfonamide,1,1-dioxide], the hRF reads like this: under setting [1], 83; under setting [2], 85; under setting [3], 88; under setting [4], 92; under setting [5], 95; under setting [6], 85. For the same molecule, the hRF is 87 under setting [7]; 90 under setting [8]; 93 under setting [9]; 95 under setting [10]; 80 under setting [11]; 83 under setting [12]. Also, the hRF was found to be 85 under setting [13], 90 under setting [14] and 92 under setting [15]. Moreover, the “- m (slope, specific hydrophobic surface area)” value worked out at 2.975 ± 0.004 (water-acetone), 2.697 ± 0.002 (water-ethanol) and 2.366 ± 0.023 (water-methanol).
For the molecule `CCOC(=O)C(CCc1ccccc1)N[C@@H](C)C(=O)N1CCC[C@H]1C(=O)O` (stereo partly drawn) [Substance 1, (S)-1-[N-[1-(ethoxycarbonyl)-3-phenylpropyl]-L-alanyl]-L-proline], the hRF was 78 under setting [1]; 84 under setting [2]; 86 under setting [3]; 89 under setting [4]; 93 under setting [5]; 81 under setting [6]. The hRF worked out at 85 under setting [7]; 90 under setting [8]; 92 under setting [9]; 93 under setting [10]; 78 under setting [11]; 80 under setting [12]. This molecule also had a hRF under setting [13] of 83, a hRF under setting [14] of 86 and a hRF under setting [15] of 88. The “- m (slope, specific hydrophobic surface area)” value was 2.671 ± 0.002 (water-acetone), 2.589 ± 0.002 (water-ethanol) and 1.635 ± 0.001 (water-methanol).
Turning to `CCOC(=O)[C@H](CCc1ccccc1)N[C@@H](C)C(=O)N1Cc2ccccc2C[C@H]1C(=O)O` [Substance 2, [3S-[2[R* (R*)],3R*]]-2-[2-[[1-(ethoxycarbonyl)-3-phenylpropyl]amino]-1-oxopropyl]-1,2,3,4-tetrahydro-3-isoquinolinecarboxylic acid], the “relative lipophilicity among the investigated substances” value is recorded as “most lipophilic”. This molecule also returned a hRF under setting [1] of 55. The molecule also came in with a hRF under setting [2] of 60. The molecule also came in with a hRF under setting [3] of 66. For the same molecule, the hRF under setting [4] is 70. The molecule further showed a hRF under setting [5] of 73. Under “water-acetone”, the “- m (slope, specific hydrophobic surface area)” value was determined as 1.763 ± 0.001; the “C0 (hydrophobicity parameter, C0 = - RM0/m)” value stood at 0.047; the “RM0 (intercept, hydrophobicity parameter)” value was 0.082 ± 0.020. Under setting [6], this molecule came in with a hRF of 65. The same molecule gave a hRF under setting [7] of 70. In addition, the hRF under setting [8] is 74. The hRF under setting [9] is listed as 79. Under setting [10], this molecule displayed a hRF of 82. The “- m (slope, specific hydrophobic surface area)” value (water-ethanol) was determined as 1.974 ± 0.001. The molecule further showed a hRF under setting [11] of 53. This molecule also showed a hRF under setting [12] of 58. Further, under setting [13], the hRF turned out to be 65. Under setting [14], the hRF is on record as 68. For the same molecule, the hRF under setting [15] was 71. In addition, for the setting “water-methanol”, the “- m (slope, specific hydrophobic surface area)” value came out at 1.721 ± 0.001; the “C0 (hydrophobicity parameter, C0 = - RM0/m)” value was found to be 0.063; the “RM0 (intercept, hydrophobicity parameter)” value turned out to be 0.109 ± 0.032.
As to `CCOC(=O)[C@H](CCc1ccccc1)N[C@H]1CCCN2CCC[C@@H](C(=O)O)N2C1=O` [Substance 4, [1S-[1α,9α (R*)]]-9-[[1-(ethoxycarbonyl)-3-phenylpropyl]amino] octahydro-10-oxo-6H-pyridazino [1,2-a] [1,2] diazepine-1-carboxylic acid monohydrate], the hRF came out at 66 under setting [1]; 70 under setting [2]; 73 under setting [3]; 77 under setting [4]; 80 under setting [5]; 73 under setting [6]. Moreover, the hRF is listed as 76 under setting [7]; 79 under setting [8]; 83 under setting [9]; 88 under setting [10]; 60 under setting [11]; 68 under setting [12]. The hRF reads like this: under setting [13], 75; under setting [14], 80; under setting [15], 85. Further, the “- m (slope, specific hydrophobic surface area)” value by setting is: (water-acetone) 1.569 ± 0.001; (water-ethanol) 2.109 ± 0.002; (water-methanol) 2.858 ± 0.001. For the same molecule, for the setting “water-methanol”, the “C0 (hydrophobicity parameter, C0 = - RM0/m)” value amounted to 0.036. Besides, the “RM0 (intercept, hydrophobicity parameter)” value (water-methanol) was 0.104 ± 0.010.
